Legend:
Type in all cases: cell-based
SW480 colon cancer cells = assay: Cell viability assay (CellTiter-Blue) in SW480 colon cancer cells; details: Homo sapiens, 96 h, four days, CellTiter-Blue
Summary of the method: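 SW480 colon cancer cells (~2×10^3/well) exposed to 8-point 1:3 dilutions from 10 μM to 0.0045 μM for four days at 37 °C/5% CO2. Viability read by resazurin (CellTiter-Blue) fluorescence after ~3 h, Ex 560/Em 590 nm. EC50 from non-linear regression; percent inhibition at 10 μM given when EC50 >10 μM.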

IL-6 (THP-1 cells) = assay: Inhibition of IL-6 in LPS-stimulated THP-1 human monocyte cells (HTRF); details: for EC50: inhibition of IL-6 in LPS-stimulated THP-1 cells, HTRF, 10-point dose-response starting from 10 μM
Summary of the method: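 THP-1 cells, serum-reduced (1% FBS) for 24 h, were preincubated with compound (10-point 1:3 series from 10 μM, 0.1% DMSO) for 2 h, then stimulated with 500 ng/mL LPS for 22 h at 37° C. IL-6 was read by HTRF (665/620 nm ratio) and normalized to DMSO. EC50 from four-parameter fit; % inhibition at 10 μM given if EC50 >10 μM.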

[1] = tested on: Wnt activity (Sp5-Luc reporter, TCF/LEF binding sites) in SW480 colon carcinoma cells; assay: Screening assay for Wnt activity: Sp5-Luc reporter gene assay in stably transduced SW480 cells; details: Homo sapiens; for EC50: overnight incubation
Summary of the method: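 Luminescence (BrightGlo) was normalised to DMSO-only wells and fitted with a four-parameter variable-slope model for EC50; beyond 10 μM, % inhibition at 10 μM is given. Stable Sp5-Luc SW480 reporter cells, 4,000/well in 1% FBS, were exposed overnight at 37 °C to compounds, top 10 μM, 1:3 dilutions, 0.1% DMSO.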

Row | EC50 (SW480 colon cancer cells) [µM] | EC50 (IL-6 (THP-1 cells)) [µM] | EC50 [1] [µM] | Compound | inhibition at 10 µM (IL-6 (THP-1 cells); IL-6 assay in LPS-stimulated THP-1 cells, given only where EC50 >10 μM, meaning not given (top concentration 10 μM), read-out: percentage given in parentheses after EC50 >10) [%] | inhibition at 10 µM ([1]; 10 μM, read-out: percent inhibition at 10 μM (given for EC50 of >10 μM)) [%]
1 | 5.05 | > 10 | > 10 | CC(C)C(=O)Nc1cncc(-c2cc3c(-c4cc5c(-c6ccccc6F)cccc5[nH]4)n[nH]c3cn2)c1 [Compound 65, N-(5-(3-(4-(2-Fluorophenyl)-1H-indol-2-yl)-1H-pyrazolo[3,4-c]pyridin-5-yl)pyridin-3-yl)isobutyramide] | 30.1 | 35.8
2 | 1.64 | 0.424 | 0.39 | c1ccc2[nH]c(-c3n[nH]c4cnc(-c5cncc(CN6CCCC6)c5)cc34)cc2c1 [Compound 266, 3-(1H-Indol-2-yl)-5-(5-(pyrrolidin-1-ylmethyl)pyridin-3-yl)-1H-pyrazolo [3,4-c]pyridine] | – | –
3 | 1.66 | 7.66 | 2.09 | Fc1ccccc1-c1cccc2[nH]c(-c3n[nH]c4cnc(-c5cncc(CN6CCCCC6)c5)cc34)cc12 [Compound 71, 3-(4-(2-Fluorophenyl)-1H-indol-2-yl)-5-(5-(piperidin-1-ylmethyl)pyridin-3-yl)-1H-pyrazolo[3,4-c]pyridine] | – | –
4 | 4.92 | 1.19 | 0.199 | O=C(Nc1cncc(-c2cc3c(-c4cc5ccccc5[nH]4)n[nH]c3cn2)c1)c1ccccc1 [Compound 263, N-(5-(3-(1H-Indol-2-yl)-1H-pyrazolo[3,4-c]pyridin-5-yl)pyridin-3-yl) benzamide] | – | –
5 | 4 | 2.98 | 0.56 | CS(=O)(=O)NCc1cc(F)cc(-c2cccc3[nH]c(-c4n[nH]c5cnc(-c6cncnc6)cc45)cc23)c1 [Compound 503, N-(3-Fluoro-5-(2-(5-(pyrimidin-5-yl)-1H-pyrazolo[3,4-c]pyridin-3-yl)-1H-indol-4-yl)benzyl)methanesulfonamide] | – | –

Reference: US10166218B2, “3-(1H-indol-2-yl)-1H-pyrazolo[3,4-C]pyridines and therapeutic uses thereof” (Samumed, LLC, priority 2015, dated 2019)
